Square brackets hold non-standard residues; d marks the D form. Peptide text beside a SMILES is read from it. * marks the point of attachment. Oleoyl = CCCCCCCC/C=C\CCCCCCCC(=O)*; Dap = NC[C@H](N)C(=O)O
Legend:
[1] = system: HEK 293T cells; test: Cell viability (CCK8) after lipopeptide/placZ transfection; assay type: cell-based; settings: 24 h
Procedure: (§1) Lipopeptide (LP1 or LP2) was dissolved in MeOH in order to create a lipid film with a desired concentration. Afterwards, the organic solvent was removed under nitrogen flow, obtaining the corresponding lipid film. The film was then hydrated with 1 mL of OptiMEM Reduced Serum Medium (1X). Lipopeptide/pDNA complexes were then formed by mixing placZ or pGFP plasmid (742 ng) with the corresponding lipopeptide (LP1 or LP2) solution to obtain various concentrations (2.5–50 µg/mL), thus being able to carry out different analysis. All mixtures were allowed to complex for 30 min at rt before being used in different experiments. Lipofectamine was used as positive control; their corresponding lipoplexes were prepared with the same plasmid concentrations and the recommended reagent volume, according to the manufacturer instructions.
(§2) HEK 293T (75000 cells/well in 48 well‐plates) or iMSCs (10000 cells/well in 96 well‐plates) were allowed to attach for 24 h at 37 °C before the experiments. Then, cells were transfected with lipopeptide (LP1 or LP2)/pDNA (placZ or pGFP) complexes and incubated for 24 h at 37 °C and 5% CO2. Untransfected cells (negative control) or cells transfected with Lipofectamine (positive control) were assessed in parallel. All conditions were evaluated by quadrupled.
(§3) Viability of the cell monolayers was monitored at 24 h using the CCK8 reagent, following the supplier's instructions (Neo Biotech, France). Briefly, cells were washed with 1X PBS (pH 7.4), and then incubated with CCK8 reagent (100 µL; 1:10 dilution in DMEM) for at least 2 h at 37 °C and 5% CO2. The absorbance (Abs) signal at 450 nm was measured in a Sinergy HTX Plate reader. Cell viability was obtained with the following formula: Cellviability%=Abssample450nm/Abscontrol450nm×100

[2] = system: iMSCs; test: as above; assay type: cell-based; settings: 24 h
Procedure: as §1, §2, §3

[3] = system: iMSCs; test: Cell viability after pGFP transfection (cell number vs untransfected control); assay type: cell-based; settings: pGFP complexes, LP1 100 µg/mL, LP2 40 µg/mL
Procedure: In parallel, in situ transfection of iMSCs was evaluated by confocal microscopy (Nikon, Tokyo, Japan) based on GFP expression (Figure 7a). Transfection efficiency was quantified using ImageJ software by calculating the percentage of GFP‐positive cells relative to the total number of cells in four randomly selected fields per condition (Figure 7b). Cell viability was determined by comparing the number of cells in each sample with that of the untransfected control (Figure 7c).

Row | Structure (SMILES) | Z-potential [mV] | cell viability [1] | cell viability [2] | cytotoxicity / cell viability compared with LPF [3]
1 | CCCCCCCC/C=C\CCCCCCCC(=O)NC[C@H](NC(=O)CCCCCCC/C=C\CCCCCCCC)C(=O)N[C@@H](CCCCN)C(=O)N[C@@H](CCCCN)C(=O)N[C@@H](CCCCN)C(=O)O [LP1, Dioleoyl‐DapKKK] (Oleoyl-[Dap](Oleoyl)KKK-OH) | 25.2 | above 75% | above 75% | higher cytotoxicity than LPF
2 | CCCCCCCC/C=C\CCCCCCCC(=O)NCCCC[C@H](NC(=O)CCCCCCC/C=C\CCCCCCCC)C(=O)N[C@@H](CCCCN)C(=O)N[C@@H](CCCCN)C(=O)N[C@@H](CCCCN)C(=O)O [LP2, Dioleoyl‐KKKK] (Oleoyl-K(Oleoyl)KKK-OH) | 25.2 | above 75% | above 75% | higher than in the LPF group

From paper PMC13410438, “Self‐Assembling Cationic Lipopeptides for the Construction of Functional Vesicular Gene‐Delivery Systems” (Small (Weinheim an Der Bergstrasse, Germany), 2026)
